From patent publication US11298388B2, “Psychoactive alkaloid extraction and composition with controlled dephosphorylation” (PSILO SCIENTIFIC LTD, priority 2020, dated 2022)
Like-named read-outs stand apart in the source and are kept apart here.

What was measured:
[1] = Isoelectric point / maximum stability pH; format: physicochemical
Protocol: The pH of the partially concentrated extract of Example 1, which was an aqueous extract, was adjusted to pH 4.0 (+/−0.5) by adding 2 M phosphoric acid and centrifuged for 15 minutes at 3000 g to remove any solid precipitate. The pH of 4 corresponds to the isoelectric point of psilocybin, and psilocin's polarity is such that it is partitioned onto the resin, thus allowing effective binding of the psychoactive alkaloids psilocybin and psilocin to the macroporous resin. Norbaeocystin and baeocystin are phosphorylated and behave in the same way as psilocybin. The supernatant obtained was loaded onto a column of Amberlite® XAD4, a non-ionic macroporous resin (50.34 g of dry resin) at a flow rate of 2 bed volumes per hour, to allow components in the supernatant to be adsorbed onto the macroporous resin. After all 2.5 L of the extract was loaded onto the column of macroporous resin, the column was washed in a single pass with 5 bed volumes of reverse osmosis water at room temperature. This was followed by elution with 5 bed volumes of 5% ethanol (by weight), again at room temperature. Finally, the column was washed in a single pass with 5 bed volumes of 100% ethanol. The elution was performed at room temperature. Each of these three fractions was collected separately. The particular order for the washing steps and the elution was selected to be in the order of the polarity of the solvents. […]

[2] = cited from earlier work
[3] = Oxidation (decay) of psilocin when exposed to air, own data

| Compound | maximum stability pH [1] | solubility ([2]; in acetone) | solubility ([2]; in ethanol) | solubility ([2]; in isopropanol) | solubility ([2]; in methanol) | solubility ([2]; in water) | decay (oxidation of psilocin) ([3]; at 20 hours when shielded from light) | decay (oxidation of psilocin) ([3]; moist and/or high light environment, after 5 hours) | decay (oxidation of psilocin) ([3]; moist and/or high light environment, within 30 minutes) |
| --- | --- | --- | --- | --- | --- | --- | --- | --- | --- |
| CN(C)CCc1c[nH]c2cccc(O)c12 [Psilocin, psilocin] | 4 | not soluble | not soluble | not soluble | soluble | soluble | 40-60% | 25% | about 10% |
| CN(C)CCc1c[nH]c2cccc(OP(=O)(O)O)c12 [Psilocybin, psilocybin] |  | not soluble | not soluble | not soluble | soluble | soluble |  |  |  |
